Test results from patent US20080319042A1, “Compositions and methods for treatment of liver disease” (priority 2007, published 2008).

Key:
HBeAg = assay: Anti-HBSAg Assay (Procedure B), HBeAg; format: cell-based, hepatitis B virus; design: HBeAg Ave: unit not given here
HBsAg = assay: Anti-HBSAg Assay (Procedure B), HBsAg; format: cell-based, hepatitis B virus; design: HBsAg Ave.: unit not given here
Method: The HBV-producing human hepatoblastoma cell line, Hep G2 2.2.15 is maintained in DMEM supplemented with 10% fetal bovine serum (FBS), 2 mM glutamine, 100 units/ml penicillin, 100 μg/ml streptomycin at 37° C. under 5% CO2 in air.
Samples were dissolved in DMSO at the concentration of 20 mg/mL, then further diluted with DMEM medium to the appropriate concentration.
Hep G2 2.2.15 cells (120 μl) were seeded onto 96-well plates at a concentration of 2×10^5 cells/mL. The cells incubated for 72 h in the medium without G418, after which the test samples (120 μl) were added. Five 3-fold serial dilutions of samples were tested. PBS and 3TC (lamivudine) were included as the negative and positive controls, respectively. The treated cells were incubated at 37° C. for 9 days; with the medium with sample being changed each 3 days, after which the culture supernatant was removed for analysis of both the hepatitis B surface antigen (HBsAg) production and hepatitis B DNA expression.
The HBsAg released into the culture medium in the presence or absence of test material was assayed using the kit manufactured by Shanghai Siic Kehua Biotech Co., Ltd (Shanghai, China). This enzyme immunoassay is based on the capture of HBsAg on monoclonal antibody-coated plates. Four- and twelve-fold dilutions of all culture supernatants collected were assayed in triplicate wells of the kit plate. The percentage inhibition of HBsAg secretion in the presence of the compound was calculated against the negative control (PBS). The IC50 values, the dose that inhibited viruses by 50%, were calculated using non-linear regression analysis (percent survival versus concentration).

HCV/HIV pseudovirions = assay: microbe, parasite or virus in culture; format: cell-based, hepatitis C virus; settings: for inhibition of HCV/HIV entry: 100 μg/mL
SARS = format: cell-based; settings: 50 mg·mL; FIG. 4
Marburg = format: cell-based; design: dose or concentration left out as unconfirmed; settings: FIG. 4
Hep G2.2.15 cells = assay: % Cell Viability in Anti-HBSAg Assay (Procedure A); format: cell-based, human; settings: 50 μg/ml
Method: The HBV-producing human hepatoblastoma cell line, Hep G2.2.15 was maintained in DMEM supplemented with 10% fetal bovine serum (FBS), 2 mM glutamine, 100 units/ml penicillin, 100 μg/ml streptomycin and 380 μg/ml gentamicin sulfate (G418) at 37° C. under 5% CO2 in air. The Hep G2 parental cells were grown under identical conditions in MEM with Earle's salts without G418.
Hep G2.2.15 cells (190 μl) were seeded onto microtiter plates at a concentration of 20×10^4 cells/ml. The cells incubated overnight in medium without G418 after which the compound compositions (10 μl) were added. Five 2-fold serial dilutions of extracts or fractions were tested starting at 200 μg/ml final culture concentration. PBS and 3TC (lamivudine) were included as the negative and positive controls, respectively. The treated cells were incubated at 37° C. for 4 days, after which the hepatitis B surface antigen (HBsAg) production in culture supernatants was assayed. The HBsAg released into the culture medium in the presence or absence of test samples was assayed using the BIO-RAD Genetic Systems HBsAg EIA 3.0 kit (Bio-Rad, Redmond, Wash.). This enzyme immunoassay is based on the capture of HBsAg on monoclonal antibody-coated plates. Four- and twelve-fold dilutions of all culture supernatants collected were assayed in triplicate wells of the EIA plate. The percentage inhibition of HBsAg secretion in the presence of the plant samples was calculated against the negative control (PBS).

Hep G2 2.2.15 cells = assay: Cytotoxicity Assay (MTT); format: cell-based, human
Method: Hep G2 2.2.15 cells (120 μl) were seeded onto 96-well plates at a concentration of 2×10^5 cells/mL. After incubation for 72 h, serial dilutions of the test samples were added to monolayer Hep G2 2.2.15 cells, and culture at 37° C. in a humidified atmosphere of 5% CO2 in air for an additional 9 days, and the medium with sample was changed every 3 days, 10 μL 10% aqueous DMSO was used as control group. After incubation, the supernatant was taken out and 90 μL of DMEM and 10 μL of the 5 mg/ml MTT (3-[4,5-dimethylthiazol-2-yl]-2,5-diphenyltetrazolium bromide) solution was then added to each well, and the plates were incubated for an additional 3 hours. The MTT was removed, and to each well was added 100 μl of DMSO. The plates were agitated on an orbital shaker at 50 rpm at room temperature for 5 min. The optical density of each sample was measured at 490 nm. The percent absorbance of the samples treated with the test material was compared to the untreated sample to calculate the percentage of control. Data are expressed as relative viability, with cytotoxicity indicated by <100% relative viability.

COC(=O)C1=COC(O)C2C1C(O)C(O)C2(C)O (mixture of isomers) [lamiridosin]
HBeAg Ave (HBeAg; 9.375 μg/mL): 1.327 | HBeAg Inhibition % (HBeAg; 9.375 μg/mL): 2.7% | HBeAg OD1 (HBeAg; 9.375 μg/mL): 1.455 | HBeAg OD2 (HBeAg; 9.375 μg/mL): 1.416 | HBeAg OD3 (HBeAg; 9.375 μg/mL): 1.109 | HBeAg Ave (HBeAg; 18.75 μg/mL): 1.244 | HBeAg Inhibition % (HBeAg; 18.75 μg/mL): 8.5% | HBeAg OD1 (HBeAg; 18.75 μg/mL): 1.151 | HBeAg OD2 (HBeAg; 18.75 μg/mL): 1.171 | HBeAg OD3 (HBeAg; 18.75 μg/mL): 1.410 | HBeAg Ave (HBeAg; 37.5 μg/mL): 1.195 | HBeAg Inhibition % (HBeAg; 37.5 μg/mL): 12.1% | HBeAg OD1 (HBeAg; 37.5 μg/mL): 1.073 | HBeAg OD2 (HBeAg; 37.5 μg/mL): 1.275 | HBeAg OD3 (HBeAg; 37.5 μg/mL): 1.238 | HBsAg Ave. (HBsAg; 9.375 μg/mL): 1.152 | HBsAg Inhibition % (HBsAg; 9.375 μg/mL): 0% | HBsAg OD1 (HBsAg; 9.375 μg/mL): 1.080 | HBsAg OD2 (HBsAg; 9.375 μg/mL): 1.220 | HBsAg OD3 (HBsAg; 9.375 μg/mL): 1.157 | HBsAg Ave. (HBsAg; 18.75 μg/mL): 1.140 | HBsAg Inhibition % (HBsAg; 18.75 μg/mL): 0% | HBsAg OD1 (HBsAg; 18.75 μg/mL): 1.208 | HBsAg OD2 (HBsAg; 18.75 μg/mL): 1.105 | HBsAg OD3 (HBsAg; 18.75 μg/mL): 1.107 | HBsAg Ave. (HBsAg; 37.5 μg/mL): 0.765 | HBsAg Inhibition % (HBsAg; 37.5 μg/mL): 29.4% | HBsAg OD1 (HBsAg; 37.5 μg/mL): 0.797 | HBsAg OD2 (HBsAg; 37.5 μg/mL): 0.744 | HBsAg OD3 (HBsAg; 37.5 μg/mL): 0.755 | anti-HBSAg assay activity (in words) (HBsAg; 37.5 μg/ml, Table 2): inactive | Exp2 (% Inhib) (HCV/HIV pseudovirions; 1 ug/mL): 56.6% | Trial 1 (% Inhib) (HCV/HIV pseudovirions; 1 ug/mL): 70.1% | Exp2 (% Inhib) (HCV/HIV pseudovirions; 5 ug/mL): 68.4% | Trial 1 (% Inhib) (HCV/HIV pseudovirions; 5 ug/mL): 81.2% | Exp2 (% Inhib) (HCV/HIV pseudovirions; 10 ug/mL): 81.8% | Trial 1 (% Inhib) (HCV/HIV pseudovirions; 10 ug/mL): 86.8% | Exp2 (% Inhib) (HCV/HIV pseudovirions; 50 ug/mL): 96.7% | Trial 1 (% Inhib) (HCV/HIV pseudovirions; 50 ug/mL): 96.1% | Exp2 (% Inhib) (HCV/HIV pseudovirions; 100 ug/mL): 99.5% | Trial 1 (% Inhib) (HCV/HIV pseudovirions; 100 ug/mL): 99.5% | inhibition of HCV/HIV entry (HCV/HIV pseudovirions; FIG. 1): approximately 80% | inhibition of HCV/HIV entry (HCV/HIV pseudovirions; FIG. 1, listed as Lamiridosin): ca. 85% | anti-hepatitis C virus activity (in words) (HCV/HIV pseudovirions; FIG. 1): did block HCV viral entry | IC50 in the anti-HCV assay (HCV viral entry) (HCV/HIV pseudovirions; FIG. 2): 0.6 µg/mL | IC50 (HCV/HIV pseudovirions; FIG. 2, read-out: IC50 in the anti-HCV assay (HCV viral entry)): 2310 nM | Imax in the anti-HCV assay (HCV/HIV pseudovirions; FIG. 2 fit): 93.9±3.5% | activity against SARS virus entry (SARS): inactive | activity against Marburg virus entry (Marburg): inactive | % Cell Viability (Hep G2.2.15 cells): 100% | Toxicity to Hep G2 2.2.15 cells (Table 2) (Hep G2 2.2.15 cells; 75 μg/mL): Toxic | Toxicity to Hep G2 2.2.15 cells (Table 2) (Hep G2 2.2.15 cells; 150 μg/mL): Toxic | cytotoxicity to the Hep G2 2.2.15 cells (Hep G2 2.2.15 cells; at doses greater than 50 μg/ml): non-cytotoxic
